Data from patent US9045505B2, “Nitric oxide donors” (University of Otago, priority 2006, dated 2015).

Molecular target: T1, cytochrome c oxidase (Rattus norvegicus, UniProt P05503)
T1 construct: from tissue; host or cells: rat liver mitochondria
Experiment: NO generation and respiration in isolated liver mitochondria (NO and O2 electrodes)
Format: biochemical
Conditions: succinate
Experimental: FIG. 9 is a series of traces and graphs showing membrane potential-dependent MitoSNAP mitochondrial uptake and NO^• generation. (a-d) Liver mitochondria were incubated in KCl medium supplemented with rotenone in a stirred 3 ml chamber and electrodes were used to measure the concentrations of O2 and NO^• simultaneously. Where indicated succinate (10 mM), OxyHb (5 μM) or FCCP (500 nM) were added. For (a) and (b) 2 mg mitochondrial protein/ml and 20 μM MitoSNAP (a) or SNAP (b) were used. For (c) and (d) 0.5 mg mitochondrial protein/ml and 5 μM MitoSNAP were used. There was no effect of 5 μM MitoNAP on respiration or NO^• production. All traces are from typical experiments repeated at least twice. (e-f) Mitochondria (1 mg protein) were incubated in 1 ml KCl medium without neocuproine or DTPA, supplemented with rotenone and succinate in the absence (e) or presence (f) of FCCP (500 nM). Mitochondria were then pelleted by centrifugation (10,000×g) then aliquots of the supernatant (700 μl) were mixed with 700 μl 0.1% TFA and analyzed by RP-HPLC. The amount of MitoSNAP and MitoNAP were calculated as the percentage of their peak areas relative to the sum of both peak areas.
Nitrite, nitric oxide and S-nitrosothiol measurements. Nitrite was analyzed by the Griess assay (Molecular Probes). Nitric oxide was measured using an NO^• electrode (World Precision Instruments Ltd, UK) connected to an Apollo 4000 Free Radical Analyser. The electrode was inserted into a stirred, sealed 3 ml chamber with a Clark type O2 electrode (Rank Brothers, UK) built into its base and was thermostatted at 37° C. The NO^• electrode was calibrated by adding SNAP to argon-purged, saturated CuCl. OxyHb was prepared by reduction of bovine methemoglobin with sodium dithionite. Protein S-nitrosothiols were measured using a chemiluminescence assay in an EcoMedics CLD 88 Exhalyzer (Annex, Herts, UK) (Feelisch, M. et al. Concomitant S—, N—, and heme-nitros(yl)ation in biological tissues and fluids: implications for the fate of NO in vivo. FASEB. J. 16, 1775-85 (2002)).
Mitochondrial incubations were usually in KCl buffer (120 mM KCl, 10 mM HEPES, 1 mM EGTA, 100 μM N,N-bis(2-bis[carboxymethyl]aminoethyl) glycine (DTPA) and 10 μM neocuproine, pH 7.2) with 10 mM succinate and 4 μg/ml rotenone in the dark at 37° C., unless stated otherwise. An electrode selective for the TPP moiety of MitoSNAP and MitoNAP was made and used as described previously (Asin-Cayuela, J., Manas, A. R., James, A. M., Smith, R. A. & Murphy, M. P. Fine-tuning the hydrophobicity of a mitochondria-targeted antioxidant. FEBS Letts. 571, 9-16 (2004)). Respiration rates were measured in a Clark type O2 electrode (Rank Brothers, UK). To measure GSH and GSSG, mitochondria (1 mg protein/ml) were incubated with 0-10 μM MitoSNO1 or MitoNAP for 10 min, pelleted by centrifugation and the GSH and GSSG contents assessed by the recycling assay (Scarlett, J. L., Packer, M. A., Porteous, C. M. & Murphy, M. P. Alterations to glutathione and nicotinamide nucleotides during the mitochondrial permeability transition induced by peroxynitrite. Biochem. Pharmacol. 52, 1047-1055 (1996)). The measurement of exposed mitochondrial protein thiols is described below.
Following its accumulation within mitochondria MitoSNAP interacted with the GSH-rich matrix to release NO^• which then affected respiration by competitively inhibiting O2 consumption at cytochrome c oxidase. […] Mitochondria were incubated with the complex I inhibitor rotenone in the absence of substrate to prevent Δψ generation, and addition of 20 μM MitoSNAP produced a small amount of NO^•, presumably due to MitoSNAP diffusion into the mitochondrial matrix and reaction with GSH (FIG. 9a).
To explore further the Δψ-dependence of NO^• production by MitoSNAP, studies with decreased concentrations (5 μM) and fewer mitochondria (0.5 mg protein/ml) were undertaken (FIGS. 9c & d). […]

[1] = 5 μM, 0.5 mg mitochondrial protein/ml
[2] = 20 μM, 2 mg mitochondrial protein/ml

Structure (SMILES) | NO production by energized mitochondria [1] | effect on respiration [1] | NO production by energized mitochondria [2] | effect on respiration [2]
CC(=O)NC(C(=O)NCCCCC[P+](c1ccccc1)(c1ccccc1)c1ccccc1)C(C)(C)SN=O.CS(=O)(=O)[O-] (stereo not drawn) [MitoSNAP, [5-(2-acetylamino-3-methyl-3-nitrosothio-butyrylamino)-penty1]-triphenylphosphonium methanesulfonate] | dramatic increase in NO^• production | decreased respiration | rapid increase in NO^• production | respiration rate slowed
CC(=O)NC(C(=O)O)C(C)(C)SN=O (racemic) [SNAP, S-nitroso-N-acetyl-DL-penicillamine, reference compound] |  |  | negligible | did not affect respiration
